In patent US7022716B2, “Cyclic amine phenyl beta-3 adrenergic receptor agonists” (Wyeth, priority 2000, dated 2006):

biological target: T1, human β3 adrenergic receptor (Homo sapiens, UniProt P13945); assay: cAMP (SPA) response in CHO cells transfected with human β3 adrenergic receptor; assay type: cell-based; design: key: fraction of maximal isoproterenol (10^-5 M) response; conditions: maximal response relative to maximal response of isoproterenol at 10^-5 M
T1 construct: Full length β3 AR clones (402 amino acids) containing the last 6 amino acids of hβ3-AR are prepared; expressed in transfected cells; host or cells: CHO (Chinese hamster ovary) cells
Experimental: Binding to the receptors was measured in Chinese Hamster ovary (CHO) cells that were transfected with adrenergic receptors.
The corresponding primer sequences are described in Mantzoros, C. […] The four fragments are ligated into a pUC 18 plasmid (Gibco-BRL) and sequenced.
CHO cells were grown in 24-well tissue culture plates in Dulbecco's Modified Eagle Media with 10% fetal bovine serum, MEM non-essential amino acids, Penicillin-Streptompycin and Geneticin. On the day of test procedure, growth medium was replaced with preincubation media (Dulbecco's Modified Eagle, Media) and incubated for 30 minutes at 37° C. […] Test compounds were tested over a concentration range of 10^−9 M to 10^−5 M for β3 cells and 10^−8 to 10^−4 M for β1 and β2 transfected cells. Isoproterenol (10^−5 M) was used as an internal standard for comparison of activity. Cells were incubated at 37° C. on a rocker for 30 min with the β3 cells and 15 min for β1 and β2 cells. Incubation was stopped with the addition of 0.2N HCl and neutralized with 2.5N NaOH. The plates, containing the cells and neutralized media, were stored at −20 degrees celsius until ready to test for cAMP using the SPA test kit (Amersham).
Data Analysis and Results: Data collected from the SPA test procedure were analyzed as percent of the maximal isoproterenol response at 10^−5 M. Activity curves were plotted using the SAS statistical and graphics software.

T1 sequence (P13945 whole entry): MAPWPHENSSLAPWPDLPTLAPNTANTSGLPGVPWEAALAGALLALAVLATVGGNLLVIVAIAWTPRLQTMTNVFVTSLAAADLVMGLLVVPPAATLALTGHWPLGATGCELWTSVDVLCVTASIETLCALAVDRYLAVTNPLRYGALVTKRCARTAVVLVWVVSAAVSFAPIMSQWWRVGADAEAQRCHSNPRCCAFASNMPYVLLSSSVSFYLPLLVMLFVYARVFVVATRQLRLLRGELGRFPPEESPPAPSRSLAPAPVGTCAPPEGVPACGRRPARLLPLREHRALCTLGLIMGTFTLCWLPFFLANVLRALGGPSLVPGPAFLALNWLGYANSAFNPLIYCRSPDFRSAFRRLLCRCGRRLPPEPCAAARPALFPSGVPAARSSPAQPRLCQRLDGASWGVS

SMILES	IA(β3)
CCCCS(=O)(=O)Nc1ccc(N2CCC(NC[C@H](O)COc3ccc(O)c(NS(=O)(=O)c4ccccc4)c3)CC2)cc1 [Example 315, N-[5-({(2S)-3-[(1-{4-[(Butylsulfonyl)amino]phenyl}-4-piperidinyl)amino]-2-hydroxypropyl}oxy)-2-hydroxyphenyl]benzenesulfonamide]	1.2
Cc1c(S(=O)(=O)Nc2ccc(N3CCC(NC[C@H](O)COc4cccc5[nH]c(=O)[nH]c45)CC3)cc2)sc2ccc(Cl)cc12 [Example 283, 5-Chloro-N-{4-[4-({(2S)-2-hydroxy-3-[(2-oxo-2,3-dihydro-1H-benzimidazol-4-yl)oxy]propyl}amino)-1-piperidinyl]phenyl}-3-methyl-1-benzothiophene-2-sulfonamide]	0.81
CCCCN(c1ccc(N2CCC(NC[C@H](O)c3ccc(O)c(NS(C)(=O)=O)c3)CC2)cc1)S(=O)(=O)CC(=O)OCc1ccccc1 [Example 324, Benzyl[(butyl-4-{4-[((2R)-2-hydroxy-2-{4-hydroxy-3-[(methylsulfonyl)amino]phenyl}-ethyl)amino]-1-piperidinyl)anilino)sulfonyl}acetate]	0.9
O=C1NC(=O)C(=Cc2ccc(N3CCC(NC[C@H](O)COc4cccc5[nH]c(=O)[nH]c45)CC3)c(Br)c2)S1 [Example 68, 5-(3-Bromo-4-{4-[(2S)-2-hydroxy-3-(2-oxo-2,3-dihydro-1H-benzoimidazol-4-yloxy)-propylamino]-piperidin-1-yl}-benzylidene)-thiazolidine-2,4-dione]	1
COc1ccc(OC)c(S(=O)(=O)Nc2ccc(N3CCC(NC[C@H](O)COc4cccc5[nH]c(=O)[nH]c45)CC3)cc2)c1 [Example 334, N-{4-[4-({(2S)-2-Hydroxy-3-[(2-oxo-2,3-dihydro-1H-benzimidazol-4-yl)oxy]propyl}-amino)-1-piperidinyl]phenyl}-2,5-dimethoxybenzenesulfonamide]	0.91
CS(=O)(=O)Nc1cc([C@@H](O)CNC2CCN(c3ccc(NS(=O)(=O)CC(=O)OCc4ccccc4)cc3)CC2)ccc1O [Example 322, Benzyl[(4-{4-[((2R)-2-hydroxy-2-{4-hydroxy-3-[(methylsulfonyl)amino]phenyl}-ethyl)amino]-1-piperidinyl}anilino)sulfonyl]acetate]	0.89
CCOC(=O)CC(=O)Nc1ccc(N2CCC(NC[C@H](O)c3ccc(O)c(NS(C)(=O)=O)c3)CC2)cc1 [Example 371, Ethyl 3-(4-{4-[((2R)-2-hydroxy-2-{4-hydroxy-3-[(methylsulfonyl)amino]phenyl}-ethyl)-amino]-1-piperidinyl}anilino)-3-oxopropanoate]	0.91
CCCCCCNC(=O)Nc1ccc(S(=O)(=O)Nc2ccc(N3CCC(NC[C@H](O)c4ccc(O)c(NS(C)(=O)=O)c4)CC3)cc2)cc1 [Example 276, 4-{[(Hexylamino)carbonyl]amino}-N-(4-{4-[((2R)-2-hydroxy-2-{4-hydroxy-3-[(methylsulfonyl)amino]phenyl}ethyl)amino]-1-piperidinyl}phenyl)benzenesulfonamide]	1.1
O=c1[nH]c2cccc(OC[C@@H](O)CNC3CCN(c4ccc(NS(=O)(=O)c5cc(Cl)c(Oc6ccc([N+](=O)[O-])cc6Cl)c(Cl)c5)cc4)CC3)c2[nH]1 [Example 352, 3,5-Dichloro-4-(2-chloro-4-nitrophenoxy)-N-{4-[4-({(2S)-2-hydroxy-3-[(2-oxo-2,3-dihydro-1H-benzimidazol-4-yl)oxy]propyl}amino)-1-piperidinyl]phenyl}-benzenesulfonamide]	1.02
CC(=O)Nc1ccc(S(=O)(=O)Nc2ccc(N3CC(NC[C@H](O)COc4cccc5[nH]c6ccccc6c45)C3)cc2)cc1 [Example 417, N-(4-{[4-(3-{[(2S)-3-(9H-Carbazol-4-yloxy)-2-hydroxypropyl]amino}-1-azetidinyl)anilino]sulfonyl}phenyl)acetamide]	0.71
O=c1[nH]c2cccc(OC[C@@H](O)CNC3CCN(c4ccc(NS(=O)(=O)c5sc(Cl)cc5Br)cc4)CC3)c2[nH]1 [Example 286, 3-Bromo-5-chloro-N-{4-[4-({(2S)-2-hydroxy-3-[(2-oxo-2,3-dihydro-1H-benzimidazol-4-yl)oxy]propyl}amino)-1-piperidinyl]phenyl}-2-thiophenesulfonamide]	0.91
CCCCOc1ccc(S(=O)(=O)Nc2ccc(N3CC(NC[C@H](O)COc4ccc(O)cc4)C3)cc2)cc1 [Example 411, 4-Butoxy-N-[4-(3-{[(2S)-2-hydroxy-3-(4-hydroxyphenoxy)propyl]amino}-1-azetidinyl)phenyl]benzenesulfonamide]	0.49
O=C1NC(=S)SC1=Cc1ccc(N2CCC(NC[C@H](O)COc3ccc(O)cc3)CC2)cc1 [Example 82, 5-(4-{4-[(2S)-2-Hydroxy-3-(4-hydroxy)-propylamino]-piperidin-1-yl}-benzylidene)-2-thioxo-thiazolidin-4-one]	1.07
O=C(CN1CCOCC1)Nc1ccc(N2CCC(NC[C@H](O)COc3cccc4[nH]c(=O)[nH]c34)CC2)cc1 [Example 383, N-{4-[4-({(2S)-2-Hydroxy-3-[(2-oxo-2,3-dihydro-1H-benzimidazol-4-yl)oxy]propyl}-amino)-1-piperidinyl]phenyl}-2-(4-morpholinyl)acetamide]	0.64

Other lines, results leading:

IA(β3)	SMILES
1	CC(=O)Nc1ccc(S(=O)(=O)Nc2ccc(N3CCC(NC[C@H](O)COc4ccc(O)c5c4CCC(=O)N5)CC3)cc2)cc1 [Example 307, N-[4-({4-[4-({(2S)-2-Hydroxy-3-[(8-hydroxy-2-oxo-1,2,3,4-tetrahydro-5-quinolin)oxy]propyl}amino)-1-piperidinyl]anilino}sulfonyl)phenyl]acetamide]
0.63	COc1ccc(S(=O)(=O)Nc2ccc(N3CCC(NC[C@H](O)c4cccc(Cl)c4)CC3)cc2)cc1 [Example 260, N-[4-(4-{[(2R)-2-(3-Chlorophenyl)-2-hydroxyethyl]amino}-1-piperidinyl)phenyl]-4-methoxybenzenesulfonamide]
0.85	COc1ccc(S(=O)(=O)Nc2ccc(N3CCC(NCC(O)c4cccc(O)c4)CC3)cc2)cc1 (stereo not shown) [Example 256, N-(4-{4-[2-Hydroxy-2-(3-hydroxy-phenyl)-ethylamino]-piperidin-1-yl}-phenyl)-4-methoxy-benzenesulfonamide]
0.97	CS(=O)(=O)Nc1cc([C@@H](O)CNC2CCN(c3ccc(NS(=O)(=O)c4ccc(C(=O)O)cc4)cc3)CC2)ccc1O [Example 317, 4-[(4-{4-[((2R)-2-Hydroxy-2-{4-hydroxy-3-[(methylsulfonyl)amino]phenyl}ethyl)amino]-1-piperidinyl}anilino)sulfonyl]benzoic acid]
0.9	O=c1[nH]c2cccc(OC[C@@H](O)CNC3CCN(c4ccc(NS(=O)(=O)c5ccc(OC(F)(F)F)cc5)cc4)CC3)c2[nH]1 [Example 329, N-{4-[4-({(2S)-2-Hydroxy-3-[(2-oxo-2,3-dihydro-1H-benzimidazol-4-yl)oxy]propyl}-amino)-1-piperidinyl]phenyl}-4-(trifluoromethoxy)benzenesulfonamide]
0.75	COc1ccc(S(=O)(=O)Nc2ccc(N3CCC(NC[C@H](O)COc4cccc5[nH]c6ccccc6c45)CC3)cc2)cc1OC [Example 292, N-[4-(4-{[(2S)-3-(9H-Carbazol-4-yloxy)-2-hydroxypropyl]amino}-1-piperidinyl)phenyl]-3,4-dimethoxybenzenesulfonamide]
1.1	CCOC(=O)Cc1ccc(S(=O)(=O)Nc2ccc(N3CCC(NC[C@H](O)COc4ccc(O)c(NS(C)(=O)=O)c4)CC3)cc2)cc1 [Example 312, Ethyl{4-[(4-}4-[((2S)-2hydroxy-3-{4-hydroxy-3-[(methylsulfonyl)amino]-phenoxy{propyl)amino]-1-piperidinyl}anilino)sulfonyl]phenyl}acetate]
0.82	CCCCCCNC(=O)Nc1ccc(S(=O)(=O)Nc2ccc(N3CCC(NC[C@H](O)c4cccc(Cl)c4)CC3)cc2)cc1 [Example 311, N-[4-(4-{[(2R)-2-(3-Chlorophenyl)-2-hydroxyethyl]amino-}-piperidinyl)phenyl]-4-{[(hexylamino)carbonyl]amino}benzenesulfonamide]
0.74	COc1ccc(S(=O)(=O)Nc2ccc(N3CCC(NC[C@H](O)COc4ccc(O)cc4)CC3)cc2)cc1OC [Example 279, N-[4-(4-{[(2S)-2-Hydroxy-3-(4-hydroxyphenoxy)propyl]amino}-1-piperidinyl)phenyl]-3,4-dimethoxybenzenesulfonamide]
0.95	CS(=O)(=O)Nc1cc(C(O)CNC2CCN(c3ccc(NS(=O)(=O)c4ccc(CC5SC(=O)NC5=O)cc4)cc3)CC2)ccc1O (stereo not shown) [Example 302, 4-[(2,4-Dioxo-1,3-thiazolidin-5-yl)methyl]-N-(4-{4-[(2-hydroxy-2-{4-hydroxy-3-[(methylsulfonyl)amino]phenyl}ethyl)amino]-1-piperidinyl}phenyl)benzenesulfonamide]
0.76	O=S(=O)(Nc1ccc(N2CCC(NCC(O)c3cccc(O)c3)CC2)cc1)c1ccc(Oc2ncc(C(F)(F)F)cc2Cl)cc1 (stereo not shown) [Example 351]
